# Measurements as given in patent US20250034184A1, “QUATERNARY PHOSPHONIUM COMPOUNDS AND USES THEREOF” (Emory University, priority 2021, published 2025).
# Read-outs that look alike come from different tables or passages of the source.
# Key:
# [1] = test system: methicillin-susceptible S. aureus (SH1000); assay: microbe, parasite or virus in culture; type: cell-based
# [2] = test system: community-acquired methicillin-resistant S. aureus (CA-MRSA; USA 300-0114); assay: microbe, parasite or virus in culture; type: cell-based
# [3] = test system: hospital-acquired methicillin-resistant S. aureus (HA-MRSA; ATCC 33591); assay: microbe, parasite or virus in culture; type: cell-based
# [4] = test system: Enterococcus faecalis (OG1RF); assay: microbe, parasite or virus in culture; type: cell-based
# [5] = test system: Escherichia coli (MC4100); assay: microbe, parasite or virus in culture; type: cell-based
# [6] = test system: Pseudomonas aeruginosa (PAO1); assay: microbe, parasite or virus in culture; type: cell-based
# [7] = test system: A. baumannii strain ATCC 19606; type: cell-based, Acinetobacter baumannii
# [8] = test system: A. baumannii pan-resistant clinical isolate, MRSN 17493; type: cell-based, Acinetobacter baumannii
# red blood cell (RBC) [9] = test system: red blood cell (RBC)
# red blood cell (RBC) [10] = assay: Red blood cell (RBC) lysis (Lysis20); conditions: RBC lysis as proxy for toxicity
# [11] = SH1000, […] DMSO carrier at highest test concentration (250 μM)
Compound,Lys20 (red blood cell (RBC) [9]) [µM],Minimum Inhibitory Concentration MSSA [1] [µM],Minimum Inhibitory Concentration CA-MRSA [2] [µM],Minimum Inhibitory Concentration HA-MRSA [3] [µM],Minimum Inhibitory Concentration E. faecalis [4] [µM],Minimum Inhibitory Concentration E. coli [5] [µM],Minimum Inhibitory Concentration Pa [6] [µM],other results
"CCCCCCCCCCC[n+]1ccc(CCCc2cc[n+](CCCCCCCCCCC)cc2)cc1 [2Pyr-11,11, reference compound]",4,–,–,–,–,–,–,"MIC ([1]; Staphylococcus aureus, MSSA, read-out: Minimum Inhibitory Concentration MSSA): 1 µM; MIC ([2]; Staphylococcus aureus, read-out: Minimum Inhibitory Concentration CA-MRSA): 2 µM; MIC ([3]; Staphylococcus aureus, read-out: Minimum Inhibitory Concentration HA-MRSA): 2 µM; MIC ([4]; Enterococcus faecalis, read-out: Minimum Inhibitory Concentration E. faecalis): 8 µM; MIC ([5]; Escherichia coli, read-out: Minimum Inhibitory Concentration E. coli): 2 µM; MIC ([6]; Pseudomonas aeruginosa, PAO1, read-out: Minimum Inhibitory Concentration Pa): 16 µM; MBEC [7]: 1000 µM; MBEC [8]: 500 µM"
CCCCCCCCCC[N+](C)(C)CCCCCCCCCC.[Cl-] [DDAC],–,–,–,–,–,–,–,MBEC [7]: 1000 µM; MBEC [8]: 500 µM
"CCCCCCCCCCCC[P+](CC[P+](CCCCCCCCCCCC)(c1ccccc1)c1ccccc1)(CC[P+](CCCCCCCCCCCC)(c1ccccc1)c1ccccc1)c1ccccc1 [P2P2P-12,12,12, ((dodecyl(phenyl)phosphoniodiyl)bis(ethane-2,1-diyl))bis(dodecyldiphenylphosphonium)]",1,2,4,8,125,125,>250,–
"CCCCCCCCCCCCC[P+](CC[P+](CCCCCCCCCCCCC)(c1ccccc1)c1ccccc1)(CC[P+](CCCCCCCCCCCCC)(c1ccccc1)c1ccccc1)c1ccccc1 [P2P2P-13,13,13, ((phenyl(tridecyl)phosphoniodiyl)bis(ethane-2,1-diyl))bis(diphenyl(tridecyl)phosphonium)]",2,2,4,16,125,125,>250,–
"CCCCCCCCCCCCCC[P+](CC[P+](CCCCCCCCCCCCCC)(c1ccccc1)c1ccccc1)(CC[P+](CCCCCCCCCCCCCC)(c1ccccc1)c1ccccc1)c1ccccc1 [P2P2P-14,14,14, ((phenyl(tetradecyl)phosphoniodiyl)bis(ethane-2,1-diyl))bis(diphenyl(tetradecyl)phosphonium)]",–,–,–,–,–,–,–,"Minimum Inhibitory Concentration MSSA [1, 11]: 16 µM; Minimum Inhibitory Concentration CA-MRSA ([2]; USA 300-0114): 16 µM; Minimum Inhibitory Concentration HA-MRSA ([3]; ATCC 33591): 32 µM; Minimum Inhibitory Concentration E. faecalis ([4]; OG1RF): 250 µM; Minimum Inhibitory Concentration E. coli ([5]; MC4100): 250 µM; Minimum Inhibitory Concentration Pa ([6]; P. aeruginosa PAO1): >250 µM; Lys20 (red blood cell (RBC) [10]): 1 µM"
"CCCCCCCC[P+](c1ccccc1)(c1ccccc1)c1ccccc1 [TPP-8, octyltriphenylphosphonium]",63,4,4,125,>250,>250,>250,–
"CCCCCCCCCC[P+](c1ccccc1)(c1ccccc1)c1ccccc1 [TPP-10, decyltriphenylphosphonium]",16,1,2,8,250,250,250,–
"CCCCCCCCCCC[P+](c1ccccc1)(c1ccccc1)c1ccccc1 [TPP-11, triphenyl(undecyl)phosphonium]",16,1,1,4,125,125,250,–
"CCCCCCCCCCCC[P+](c1ccccc1)(c1ccccc1)c1ccccc1 [TPP-12, dodecyltriphenylphosphonium]",8,0.5,1,2,63,250,63,–
"CCCCCCCCCCCCC[P+](c1ccccc1)(c1ccccc1)c1ccccc1 [TPP-13, triphenyl(tridecyl)phosphonium]",4,1,1,2,16,4,32,fold increase in activity compared to its 12-carbon analog [5]: ~63 fold
"CCCCCCCCCCCCCC[P+](c1ccccc1)(c1ccccc1)c1ccccc1 [TPP-14, triphenyl(tetradecyl)phosphonium]",4,2,2,2,8,16,16,–
"CCCCCCCCCCCCCCCC[P+](c1ccccc1)(c1ccccc1)c1ccccc1 [TPP-16, hexadecyltriphenylphosphonium]",4,2,2,4,4,16,16,fold increase in activity compared to BAC and CPC [4]: ~63 fold; fold increase in activity compared to BAC and CPC [6]: ~16 fold
"benzalkonium chloride [BAC, reference compound]",16,4,4,8,250,63,250,MBEC [7]: 2000 µM; MBEC [8]: 2000 µM
octadecyltriphenylphosphonium [TPP-18],–,–,–,–,–,–,–,"Minimum Inhibitory Concentration MSSA [1, 11]: 4 µM; Minimum Inhibitory Concentration CA-MRSA ([2]; USA 300-0114): 8 µM; Minimum Inhibitory Concentration HA-MRSA ([3]; ATCC 33591): 8 µM; Minimum Inhibitory Concentration E. faecalis ([4]; OG1RF): 16 µM; Minimum Inhibitory Concentration E. coli ([5]; MC4100): 125 µM; Minimum Inhibitory Concentration Pa ([6]; P. aeruginosa PAO1): 125 µM; Lys20 (red blood cell (RBC) [10]): 4 µM"
